# Measurements reported in patent publication US20250154138A1, “Small Molecule IL-17A Modulators” (BeiGene, Ltd., priority 2022, published 2025).
# pIC50: −log10 of the molar value.
# Experiments:
# [1] = target: human IL-17A / human IL-17RA (Homo sapiens (Human), UniProt Q16552); assay: Human IL-17A biochemical assay (HTRF, blocking of IL-17A binding to IL-17RA); conditions: 0.4 nM IL-17A, 0.3 nM IL-17RA, max compound concentration 10 uM
# Outline: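 Recombinant human IL-17A (0.4 nM) was pre-incubated with compound (top 10 uM, 2.7-fold, 10 points) for 3 h at room temperature in 20 mM HEPES pH 7.5, 50 mM NaCl, 0.1% BSA, 0.2 mM DTT, 0.005% Tween 20. IL-17RA (0.3 nM) was then added for 1 h, followed by anti-6His Tb and anti-human IgG-XL665 detection for 1 h; IC50 from four-parameter fit.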
# [2] = system: IL-17-induced GROα secretion from HT-29 cells; assay: GROα release assay in human colorectal adenocarcinoma epithelial cell (HT-29, ELISA); format: cell-based; conditions: Homo sapiens, HT-29, 48 h, 10 ng/mL IL-17A, highest concentration 10 μM, read-out: Cellular assay HT29 cell/CXCL1 IC50
# Outline: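 HT-29 cells were exposed 48 h at 37°C to IL-17A (final 10 ng/mL) preincubated 15 min with compound (4-fold dilutions, top 10 μM). Secreted GROα was quantified by ELISA against a standard curve, and IC50 obtained by four-parameter fitting.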
# Chain of human IL-17A / human IL-17RA (Q16552 24-155): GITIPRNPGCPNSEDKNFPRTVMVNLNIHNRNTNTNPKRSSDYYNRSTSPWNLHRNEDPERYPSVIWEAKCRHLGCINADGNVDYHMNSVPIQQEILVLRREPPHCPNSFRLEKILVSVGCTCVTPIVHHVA
SMILES,pIC50 [1],pIC50 [2]
"Cc1nonc1C(=O)N[C@H](C(=O)Nc1ccc2c(c1)CC(C(=O)NC1CCOC1)(N1C[C@@H](C(C)C)NC1=O)C2)C(C1CC1)C1CC1 (stereo partly drawn) [Example 280, N-((2S)-1,1-dicyclopropyl-3-((2-((R)-4-isopropyl-2-oxoimidazolidin-1-yl)-2-((tetrahydrofuran-3-yl)carbamoyl)-2,3-dihydro-1H-inden-5-yl)amino)-3-oxopropan-2-yl)-4-methyl-1,2,5-oxadiazole-3-carboxamide]",7.76,7.32
"CNC(=O)C1(N2CC(C(F)(F)F)NC2=O)Cc2ccc(NC(=O)[C@@H](NC(=O)c3ccnn3C)C3CCCCC3)cc2C1 (stereo partly drawn) [Example 202, N-((1S)-1-cyclohexyl-2-((2-(methylcarbamoyl)-2-(2-oxo-4-(trifluoromethyl)imidazolidin-1-yl)-2,3-dihydro-1H-inden-5-yl)amino)-2-oxoethyl)-1-methyl-1H-pyrazole-5-carboxamide]",6.46,6.28
"CNC(=O)C1(N2CC(C3CC3)CNC2=O)Cc2ccc(NC(=O)[C@@H](NC(=O)c3ccnn3C)C3CCCCC3)cc2C1 (stereo partly drawn) [Example 94, N-((1S)-1-cyclohexyl-2-((2-(5-cyclopropyl-2-oxotetrahydropyrimidin-1(2H)-yl)-2-(methylcarbamoyl)-2,3-dihydro-1H-inden-5-yl)amino)-2-oxoethyl)-1-methyl-1H-pyrazole-5-carboxamide]",7.40,6.93
"Cc1nonc1C(=O)N[C@H](C(=O)Nc1ccc2c(c1)CC(c1nc3cccc(C(F)(F)F)c3[nH]1)(N1CC3(CC3)CNC1=O)C2)C1CCC(F)(F)CC1 (stereo partly drawn) [Example 192, N-((1S)-1-(4,4-difluorocyclohexyl)-2-oxo-2-((2-(6-oxo-5,7-diazaspiro[2.5]octan-5-yl)-2-(7-(trifluoromethyl)-1H-benzo[d]imidazol-2-yl)-2,3-dihydro-1H-inden-5-yl)amino)ethyl)-4-methyl-1,2,5-oxadiazole-3-carboxamide]",5.78,5.91
"CNC(=O)C1(N2C[C@@H](C(C)C)NC2=O)Cc2ccc(NC(=O)C(NC(=O)c3ccnn3C)C3CCC(C(C)(C)C)CC3)cc2C1 (stereo partly drawn) [Example 118, N-(1-(4-(tert-butyl)cyclohexyl)-2-((2-((R)-4-isopropyl-2-oxoimidazolidin-1-yl)-2-(methylcarbamoyl)-2,3-dihydro-1H-inden-5-yl)amino)-2-oxoethyl)-1-methyl-1H-pyrazole-5-carboxamide]",6.72,6.24
"Cn1nccc1C(=O)N[C@H](C(=O)Nc1ccc2c(c1)OC(CN1C[C@@H](C(F)(F)F)NC1=O)C2)C1CCC(F)(F)CC1 (stereo partly drawn) [Example 258, N-((1S)-1-(4,4-difluorocyclohexyl)-2-oxo-2-((2-(((S)-2-oxo-4-(trifluoromethyl)imidazolidin-1-yl)methyl)-2,3-dihydrobenzofuran-6-yl)amino)ethyl)-1-methyl-1H-pyrazole-5-carboxamide]",6.97,6.68
"CNC(=O)C1(N2C[C@@H](Cc3ccc(C)cc3)NC2=O)Cc2ccc(NC(=O)[C@@H](NC(=O)c3ccnn3C)C3CCCCC3)cc2C1 (stereo partly drawn) [Example 62, N-((1S)-1-cyclohexyl-2-((2-((R)-4-(4-methylbenzyl)-2-oxoimidazolidin-1-yl)-2-(methylcarbamoyl)-2,3-dihydro-1H-inden-5-yl)amino)-2-oxoethyl)-1-methyl-1H-pyrazole-5-carboxamide]",7.62,6.67
"CNC(=O)C1(N2C[C@@H](C(C)C)NC2=O)Cc2ccc(NC(=O)[C@@H](NC(=O)Cc3ccccc3)C3CCCCC3)cc2C1 (stereo partly drawn) [Example 53, 5-((S)-2-cyclohexyl-2-(2-phenylacetamido)acetamido)-2-((R)-4-isopropyl-2-oxoimidazolidin-1-yl)-N-methyl-2,3-dihydro-1H-indene-2-carboxamide]",6.65,6.13
"CC(C)[C@@H]1CN(CC2Cc3ccc(NC(=O)[C@@H](NC(=O)c4ccnn4C(C)C)C(C4CC4)C4CC4)cc3N2)C(=O)N1 (stereo partly drawn) [Example 286, N-((2S)-1,1-dicyclopropyl-3-((2-(((R)-4-isopropyl-2-oxoimidazolidin-1-yl)methyl)indolin-6-yl)amino)-3-oxopropan-2-yl)-1-isopropyl-1H-pyrazole-5-carboxamide]",6.84,6.37
"Cc1nonc1C(=O)N[C@H](C(=O)Nc1ccc2c(c1)CC(C(=O)NC1CC1(F)F)(N1C[C@@H](C(C)C)NC1=O)C2)C(C1CC1)C1CC1 (stereo partly drawn) [Example 273, N-((2S)-1,1-dicyclopropyl-3-((2-((2,2-difluorocyclopropyl)carbamoyl)-2-((R)-4-isopropyl-2-oxoimidazolidin-1-yl)-2,3-dihydro-1H-inden-5-yl)amino)-3-oxopropan-2-yl)-4-methyl-1,2,5-oxadiazole-3-carboxamide]",7.46,7.18
"CNC(=O)C1(N2CC(C)(C3CC3)CNC2=O)Cc2ccc(NC(=O)[C@@H](NC(=O)c3ccnn3C)C3CCCCC3)cc2C1 (stereo partly drawn) [Example 113, N-((1S)-1-cyclohexyl-2-((2-(5-cyclopropyl-5-methyl-2-oxotetrahydropyrimidin-1(2H)-yl)-2-(methylcarbamoyl)-2,3-dihydro-1H-inden-5-yl)amino)-2-oxoethyl)-1-methyl-1H-pyrazole-5-carboxamide]",7.28,6.34
"Cc1nonc1C(=O)N[C@H](C(=O)Nc1ccc2c(c1)CC(Cc1ccc(F)cc1)(N1C[C@@H](C(C)C)NC1=O)C2)C(C1CC1)C1CC1 (stereo partly drawn) [Example 241, N-((2S)-1,1-dicyclopropyl-3-((2-(4-fluorobenzyl)-2-((R)-4-isopropyl-2-oxoimidazolidin-1-yl)-2,3-dihydro-1H-inden-5-yl)amino)-3-oxopropan-2-yl)-4-methyl-1,2,5-oxadiazole-3-carboxamide]",5.54,5.24
"Cc1nonc1C(=O)N[C@H](C(=O)Nc1ccc2c(c1)CC(N1C[C@@H](C(C)C)NC1=O)C2)C(C1CC1)C1CC1 (stereo partly drawn) [Example 231, N-((2S)-1,1-dicyclopropyl-3-((2-((R)-4-isopropyl-2-oxoimidazolidin-1-yl)-2,3-dihydro-1H-inden-5-yl)amino)-3-oxopropan-2-yl)-4-methyl-1,2,5-oxadiazole-3-carboxamide]",5.97,5.71
"CNC(=O)C1(N2CC3(CCC3)CNC2=O)Cc2ccc(NC(=O)[C@@H](NC(=O)c3nonc3C)C3CCCCC3)cc2C1 (stereo partly drawn) [Example 110, N-((1S)-1-cyclohexyl-2-((2-(methylcarbamoyl)-2-(7-oxo-6,8-diazaspiro[3.5]nonan-6-yl)-2,3-dihydro-1H-inden-5-yl)amino)-2-oxoethyl)-4-methyl-1,2,5-oxadiazole-3-carboxamide]",7.82,7.12
"Cc1nonc1C(=O)N[C@H](C(=O)Nc1ccc2c(c1)CC(C(=O)Nc1cccc(F)c1)(N1CC3(CC3)CNC1=O)C2)C(C1CC1)C1CC1 (stereo partly drawn) [Example 216, N-((2S)-1,1-dicyclopropyl-3-((2-((3-fluorophenyl)carbamoyl)-2-(6-oxo-5,7-diazaspiro[2.5]octan-5-yl)-2,3-dihydro-1H-inden-5-yl)amino)-3-oxopropan-2-yl)-4-methyl-1,2,5-oxadiazole-3-carboxamide]",7.63,7.23
"CC(C)n1nccc1C(=O)N[C@H](C(=O)Nc1ccc2c(c1)CC(c1nc3cccc(C(F)(F)F)c3[nH]1)(N1CC3(CC3)CNC1=O)C2)C(C1CC1)C1CC1 (stereo partly drawn) [Example 198, N-((2S)-1,1-dicyclopropyl-3-oxo-3-((2-(6-oxo-5,7-diazaspiro[2.5]octan-5-yl)-2-(7-(trifluoromethyl)-1H-benzo[d]imidazol-2-yl)-2,3-dihydro-1H-inden-5-yl)amino)propan-2-yl)-1-isopropyl-1H-pyrazole-5-carboxamide]",5.95,6.50
"CNC(=O)C1(N2CC3(CC3)CNC2=O)Cc2ccc(NC(=O)[C@@H](NC(=O)c3ccnn3C)C3CCC(F)(F)CC3)cc2C1 (stereo partly drawn) [Example 142, N-((1S)-1-(4,4-difluorocyclohexyl)-2-((2-(methylcarbamoyl)-2-(6-oxo-5,7-diazaspiro[2.5]octan-5-yl)-2,3-dihydro-1H-inden-5-yl)amino)-2-oxoethyl)-1-methyl-1H-pyrazole-5-carboxamide]",6.97,6.71
"Cn1nccc1C(=O)N[C@H](C(=O)Nc1ccc2c(c1)CC(C(=O)C(F)(F)F)(N1CC3(CC3)CNC1=O)C2)C1CCCCC1 (stereo partly drawn) [Example 193, N-((1S)-1-cyclohexyl-2-oxo-2-((2-(6-oxo-5,7-diazaspiro[2.5]octan-5-yl)-2-(2,2,2-trifluoroacetyl)-2,3-dihydro-1H-inden-5-yl)amino)ethyl)-1-methyl-1H-pyrazole-5-carboxamide]",7.29,6.85
"CC(C)n1nccc1C(=O)N[C@H](C(=O)Nc1ccc2c(c1)CC(c1ncc(-c3ccccc3)[nH]1)(N1CC3(CC3)CNC1=O)C2)C(C1CC1)C1CC1 (stereo partly drawn) [Example 206, N-((2S)-1,1-dicyclopropyl-3-oxo-3-((2-(6-oxo-5,7-diazaspiro[2.5]octan-5-yl)-2-(5-phenyl-1H-imidazol-2-yl)-2,3-dihydro-1H-inden-5-yl)amino)propan-2-yl)-1-isopropyl-1H-pyrazole-5-carboxamide]",6.57,7.49
"CC[C@@H]1CN(C2(C(=O)NC)Cc3ccc(NC(=O)[C@@H](NC(=O)c4ccnn4C)C4CCCCC4)cc3C2)C(=O)N1 (stereo partly drawn) [Example 19, N-((1S)-1-cyclohexyl-2-((2-((R)-4-ethyl-2-oxoimidazolidin-1-yl)-2-(methylcarbamoyl)-2,3-dihydro-1H-inden-5-yl)amino)-2-oxoethyl)-1-methyl-1H-pyrazole-5-carboxamide]",7.22,6.58
